For experiment [1], the system named is ATP-33 (DNA, aptamer) CGCACCTGGGGGAGTATTGCGGAGGAAGGTGCG
Nature of the experiment: ITC, two-site sequential binding. The conditions noted are these: 10 mM Mg2+; 10 mM Tris, pH 7.4, 23 °C; site 1 of 2 (KD2 12.3 ± 0.6 μM). For orientation: Isothermal titration calorimetry measures the heat released or taken up as one component is titrated into another.

Experiment [2] deals with ATP-30 (DNA, aptamer) CGCACCTGGGGGAGTATTGCGGAGGAAGGT
Briefly: ITC, two-site sequential binding. Conditions: 10 mM Mg2+; 10 mM Tris, pH 7.4, 23 °C; site 1 of 2 (KD2 10.1 ± 0.3 μM).

Experiment [3] relates to 38-GT (DNA, aptamer) GGGAGACAAGGAAAATCCTTCAATGAAGTGGGTCTCCC
Briefly: ITC. Conditions: 10 mM Tris, pH 7.4, 23 °C.

The subject of experiment [4] is 35-GT (DNA, aptamer) GGGAGACAAGGAAAATCCTTCAATGAAGTGGGTCT
Briefly: ITC. Conditions: 10 mM Tris, pH 7.4, 23 °C.

Drawing on PMC6061857 (2018), this text covers KD1 and KD for two molecules.

By KD is commonly meant the constant that tells how readily two partners part at equilibrium. Low readings indicate tighter binding, high ones weaker binding.

Take `Nc1ncnc2c1ncn2[C@@H]1O[C@H](COP(=O)(O)OP(=O)(O)OP(=O)(O)O)[C@@H](O)[C@H]1O`: the KD1 in experiment [1] came out at 0.6 ± 0.1 µM; in experiment [2] it was 0.8 ± 0.1 µM.

Consider `COC(=O)[C@H]1[C@@H](OC(=O)c2ccccc2)C[C@@H]2CC[C@H]1N2C`, for which the KD in experiment [3] amounted to 1.6 ± 0.2 µM; in experiment [4], 12 ± 1.0 µM.
